Results published in article PMC8639922, “KSHV transactivator-derived small peptide traps coactivators to attenuate MYC and inhibits leukemia and lymphoma cell growth” (Communications Biology, 2021).
Square brackets hold non-standard residues; d marks the D form. Peptide text beside a SMILES is read from it. Orn = NCCC[C@H](N)C(=O)O; βAla = NCCC(=O)O

Key:
MYC expression in BCBL-1 = experiment: MYC qRT-PCR; format: cell-based, human; conditions: BCBL-1, 24 μM, 24 h
Protocol: (§1) As a next step, we sought to identify the cellular pathways that are impacted by VGN50. For this, RNA-seq analysis was conducted on total RNA isolated from cells harvested after 24 h of incubation with VGN50. Mutant peptide was used as a comparison to identify differentially regulated genes by VGN50 (Fig. 4a). […] Furthermore, we confirmed the result by RT-qPCR that the expression of MYC itself was decreased in both BCBL-1 and BC-1 cells after treatment with VGN50, but not mutant peptide (Fig. 4c).
(§2) Fig. 4 VGN50 target identification with RNA-sequencing. a Total RNA-sequencing. BCBL-1 cells were treated with either VGN50 or mutant peptide for 24 h (24 μM, n = 3). Untreated cells were used as a negative control. RNA-sequencing datasets from VGN50-peptide-treated samples were compared with that from mutant-peptide-treated samples, and differentially regulated genes were depicted as a volcano plot (left panel). b Gene Set Enrichment Analyses (GSEA). […] Peptide-treated samples were used for qRT-PCR analysis in duplicate and confirmed MYC down-regulation. (VGN50, 24 μM, 24 h post treatment) d Direct target identification with SLAM-seq. The experimental scheme is shown in the upper section of the panel. VGN50 or mutant peptide (24 μM final concentration) were added to BC-1 or BCBL-1 cells 30 mins prior to incubation with 4sU, and RNA was labeled for 1 h in the presence of each peptide. The C/T converted RNA-species were compared with mock-treated samples and depicted as scatter plots. Each treatment was performed in duplicate and nascent transcripts with p-values <0.05 are indicated as red dots. e Integrative Genomics Viewer (IGV). Both non-T/C converted and converted sequence reads were visualized with the IGV, and a snapshot of the MYC 3′-UTR region is presented. […] The strategy of gene selection for CSAN is described on the left-hand side of the panel. […] The number of common transcriptional regulators are shown in the Venn diagram and selected transcription and co-regulatory protein names are also included. The complete list of gene names is presented in Supplementary Fig. 3.

MYC expression in BC-1 = experiment: MYC qRT-PCR; format: cell-based, human; conditions: BC-1, 24 μM, 24 h
Protocol: as §1, §2

Structure (SMILES): CC(C)C[C@H](NC(=O)CCNC(=O)[C@H](CCCNC(=N)N)NC(=O)[C@H](CCCNC(=N)N)NC(=O)[C@H](CCCNC(=N)N)NC(=O)[C@H](CCCN)NC(=O)[C@H](CCCNC(=N)N)NC(=O)[C@H](CCCNC(=N)N)NC(=O)[C@H](CCCCN)NC(=O)[C@H](CCCCN)NC(=O)[C@H](N)CCCNC(=N)N)C(=O)N[C@@H](CO)C(=O)N[C@@H](CO)C(=O)N[C@@H](C)C(=O)N[C@@H](C)C(=O)N[C@@H](C)C(=O)NCC(=O)N[C@@H](CC(C)C)C(=O)N[C@@H](Cc1ccc(O)cc1)C(=O)N[C@@H](CCC(N)=O)C(=O)N[C@@H](CC(C)C)C(=O)N[C@@H](CC(=O)O)C(=O)N[C@H](C(=O)O)[C@@H](C)O [Mt-P] (H-[dR]KKRR[Orn]RRR[βAla]LSSAAAGLYQLDT-OH; N-terminus and C-terminus assumed)
- C-myc 2^-(DCT) (MYC expression in BCBL-1; replicate 1): 9.038e-5
- C-myc 2^-(DCT) (MYC expression in BCBL-1; replicate 2): 8.988e-5
- C-myc 2^-(DCT) (MYC expression in BC-1; replicate 1): 9.403e-5
- C-myc 2^-(DCT) (MYC expression in BC-1; replicate 2): 9.337e-5
